Laboratory results reported in patent US8987321B2, “Lisofylline analogs and methods for use” (University of Virginia Patent Foundation, priority 2005, dated 2015).

Experiments:
rCYP 2C9 = rCYP 2C9 (Homo sapiens, UniProt P11712); test: rCYP450 inhibition, 2C9; assay type: in vitro ADME; parameters: concentration or dose not given beside the values
Experimental: (§1) Further evaluations were performed for some of the LSF analogs in MDS assays, solubility, oral bioavailability, and stability (see Table 1). Analogs having greater than 50% inhibitory activity were considered to have high activity; analogs having from 20-49% inhibitory activity were considered to have medium activity; and analogs having less than 20 inhibitory activity were considered to have low activity

rCYP 2D6 = rCYP 2D6 (Homo sapiens, UniProt P10635); test: rCYP450 inhibition, 2D6; assay type: in vitro ADME; parameters: concentration or dose not given beside the values
Experimental: as §1

Metabolic stability = assay type: in vitro ADME
Experimental: (§2) Further evaluations were performed for some of the LSF analogs in MDS assays, solubility, oral bioavailability, and stability (see Table 1).

rCYP 3A4 = rCYP 3A4 (Homo sapiens, UniProt P08684); test: rCYP450 inhibition, 3A4; assay type: in vitro ADME; parameters: concentration or dose not given beside the values
Experimental: as §1

rCYP 2C19 = rCYP 2C19 (Homo sapiens, UniProt P33261); test: rCYP450 inhibition, 2C19; assay type: in vitro ADME; parameters: concentration or dose not given beside the values
Experimental: as §1

rCYP 1A2 = biological target: T1, rCYP 1A2 (Homo sapiens, UniProt P05177); test: rCYP450 inhibition, 1A2; assay type: in vitro ADME; parameters: concentration or dose not given beside the values
T1 sequence (P05177 1-516): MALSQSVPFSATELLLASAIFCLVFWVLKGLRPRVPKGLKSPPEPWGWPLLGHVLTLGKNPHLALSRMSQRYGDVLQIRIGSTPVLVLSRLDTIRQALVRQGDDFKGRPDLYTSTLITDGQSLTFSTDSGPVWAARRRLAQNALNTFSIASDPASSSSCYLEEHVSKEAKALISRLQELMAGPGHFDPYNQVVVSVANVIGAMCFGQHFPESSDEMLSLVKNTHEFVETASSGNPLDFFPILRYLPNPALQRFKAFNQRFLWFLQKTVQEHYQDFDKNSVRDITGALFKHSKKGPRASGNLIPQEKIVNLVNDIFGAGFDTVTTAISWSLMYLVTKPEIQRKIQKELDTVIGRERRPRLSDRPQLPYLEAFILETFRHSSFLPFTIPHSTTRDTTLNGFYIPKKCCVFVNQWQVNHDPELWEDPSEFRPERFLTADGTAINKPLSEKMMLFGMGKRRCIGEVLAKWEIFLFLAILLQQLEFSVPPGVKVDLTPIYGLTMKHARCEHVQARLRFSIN
Experimental: as §1

human islets [1] = test: Insulin secretion in human islets exposed to cytokines; assay type: cell-based; conditions: human islet, in the presence of inflammatory cytokines
Experimental: (§3) Four compounds (CPW7, CPW8, CPW11, and CPW12) were also evaluated on human islets for the induction of insulin secretion, intracellular ATP concentrations and the effect of reducing cell death exposed to cytokines (combination of human IL-1β, IFN-γ, and TNF-α). The results are illustrated FIGS. 7A-7D.

human islets [2] = test: Cell death of human islets exposed to cytokines; assay type: cell-based; conditions: human β-cells
Experimental: as §3

INS-1 cells [3] = test: Protection of INS-1 cells from cytokine-induced cell death; assay type: cell-based, rat
Experimental: The effects of LSF analogs on β-cells in the […] insulin-secreting INS-1 cell line were investigated. Cells were maintained in RPMI 1640 medium (Life Technologies, Inc., Gaithersburg, Md.) supplemented with 10% heat-inactivated FBS, 10 mm HEPES, 200 μm L-glutamine, 1 mm sodium pyruvate, […] 2-mercaptoethanol, 50 U/ml penicillin, and 50 μg/ml streptomycin at pH 7.4. The cells were cultured at 37° C. in a humidified incubator supplied with 5% carbon dioxide. Fresh medium was replaced every 2 days. The cells were plated at a density of […]. Culture vessels were coated with poly-D-lysine and gelatin (Sigma, St. Louis, Mo.) to retain detached and dead cells so that seeding cell numbers reflect the actual cell numbers after all treatment conditions. INS-1 cells were treated with the combination of recombinant mouse IL-1β (5 ng/ml), IFNγ (100 ng/ml), and TNFα (10 ng/ml; R&D Systems, Inc., Minneapolis, Minn.) suspended in complete RPMI medium. LSF (provided by Cell Therapeutics, Inc., Seattle, Wash.) and analogs were added simultaneously with the cytokines in complete RPMI medium. All treatments were performed for 18 hours.
INS-1 cells were treated with a combination of recombinant IL-1β, INFγ, and TNFα with 10^−5-10^3 μM LSF and its analogs. […] There was no further increase in β-cell protection when the LSF concentration was increased from 10^−2 to 10^2 μM. […] No further increases in β-cell protection were observed when analog concentrations were increased.
The effects of LSF analogs on insulin secretion in INS-1 cells with and without inflammatory cytokines. β-Cells were treated with apoptosis detecting dye for 2-3 hours at room temperature. Apoptotic cells were recognized with purple-red color under a microscope. After washing to eliminate free dye and adding dye release reagent, color density was quantified by reading at OD 450 nm. […] Insulin secreted into the supernatant was measured by RIA with mouse insulin as a standard. […]

mouse-origin β-TC6 cells [4] = test: Insulin release, pancreatic β cell lines; assay type: cell-based; conditions: mouse islet cell line
Experimental: (§4) The disclosed analogs (CPW1-15) were evaluated in pancreatic β cell lines for apoptosis protection after treatment with inflammatory cytokines (reflected by reduced OD450) and insulin-release (see FIGS. 5 and 6).
At the end of treatment, cells are washed with Krebs-Ringer-bicarbonate-HEPES buffer (KR13) containing in mM: 134 NaCl, 4.7 KCl, 1.2 KH2P04, 1.2 MgS04, 1.0 CaCI2, 10 HEPES, and 0.1% bovine serum albumin at 37° C., at a pH of 7.4. The cells are pre incubated in the same buffer for 30 min followed by 60-min incubation in KRB supplemented with 15 mM D-glucose (J. T. Baker, Phillisburg, N.J.). The supernatant is harvested and subjected to centrifugation to eliminate residue cells. Insulin secreted into the supernatant is measured using EIA with mouse insulin as a standard. The results are illustrated in FIGS. 9A-9P.

Caco-2 = Caco-2 permeability test; assay type: in vitro ADME
human islets [5] = test: Intracellular ATP concentrations (mitochondrial function) in human islets; assay type: cell-based; conditions: human β-cells
Experimental: as §3

cytochrome p450 = cytochrome p450 inhibition, overall statement; assay type: in vitro ADME
Description: Analogs having greater than 50% inhibitory activity were considered to have high activity; analogs having from 20-49% inhibitory activity were considered to have medium activity; and analogs having less than 20 inhibitory activity were considered to have low activity

mouse-origin β-TC6 cells [6] = test: β-cell apoptosis protection after inflammatory cytokines, pancreatic β cell lines; assay type: cell-based; conditions: mouse islet cell line
Experimental: as §4
The β-TC6 cell line is maintained in RPMI 1640 medium (Life Technologies, Rockville, Md.) supplemented with 10% heat inactivated fetal bovine serum, 10 mM HEPES, […] L-glutamine, 50 units/ml penicillin and 50 μg/ml streptomycin at pH 7.4. The cells are cultured in a 37° C., humidified incubator supplied with 5% carbon dioxide. Fresh media is replaced every two days. Unless otherwise stated, the cells are plated at a density of 10^5/cm^2. Culture vessels (dishes and chamber slides) used for experiments were coated with poly-D-lysine and gelatin (Sigma, St. Louis, Mo.) to retain detached and dead cells so that seeding cell numbers reflect the actual cell numbers after all treatment conditions.
β-TC6 cells are treated with vehicle alone or with the combination of recombinant mouse IL-1β (5 ng/ml), IFN-γ (100 ng/ml) and TNF-α (10 ng/ml) (R&D Systems, Minneapolis, Minn.) suspended in complete RPMI medium. LSF (Cell Therapeutics, Inc. Seattle, Wash.) or the analogs are added simultaneously with the cytokines in complete RPMI medium in the concentrations ranging 1 nM-[…]. All treatments are conducted for 18 hours. The results are illustrated in FIGS. 5A-8P.

Solubility = assay type: physicochemical; conditions: in words
Experimental: as §2

INS-1 cells [7] = test: Insulin secretion in INS-1 cells; assay type: cell-based, rat; conditions: 20 μM
Experimental: The effects of LSF analogs on insulin secretion in INS-1 cells with and without inflammatory cytokines. β-Cells were treated with apoptosis detecting dye for 2-3 hours at room temperature. Apoptotic cells were recognized with purple-red color under a microscope. After washing to eliminate free dye and adding dye release reagent, color density was quantified by reading at OD 450 nm. At the end of treatment, cells were washed with Krebs-Ringer-bicarbonate-HEPES buffer (KRB) containing 134 mm NaCl, 4.7 mm KCl, 1.2 mm KH2PO4, 1.2 mm MgSO4, 1.0 mm CaCl2, 10 mm HEPES, and 0.1% BSA at 37° C., pH 7.4. The cells were preincubated in the same buffer for 30 min, followed by 60-min incubation in KRB supplemented with 15 mM D-glucose (J. T. Baker, Phillipsburg, N.J.). The supernatant was harvested and subjected to centrifugation to eliminate residue cells. Insulin secreted into the supernatant was measured by RIA with mouse insulin as a standard. The cells are maintained in basal (3 mM) and glucose-stimulated (28 mM). […] Insulin secretion in INS-1 cells: (a) LSF, (b) compound CPW11, and (c) compound CPW12. […]

β-cells = conditions: maintains insulin secretory capability and cell viability; cited from earlier work
[8] = system: non-obese diabetic (NOD) mouse; conditions: cited from earlier work
[9] = cited from earlier work

rCYP 2C9, sequence (P11712 whole entry): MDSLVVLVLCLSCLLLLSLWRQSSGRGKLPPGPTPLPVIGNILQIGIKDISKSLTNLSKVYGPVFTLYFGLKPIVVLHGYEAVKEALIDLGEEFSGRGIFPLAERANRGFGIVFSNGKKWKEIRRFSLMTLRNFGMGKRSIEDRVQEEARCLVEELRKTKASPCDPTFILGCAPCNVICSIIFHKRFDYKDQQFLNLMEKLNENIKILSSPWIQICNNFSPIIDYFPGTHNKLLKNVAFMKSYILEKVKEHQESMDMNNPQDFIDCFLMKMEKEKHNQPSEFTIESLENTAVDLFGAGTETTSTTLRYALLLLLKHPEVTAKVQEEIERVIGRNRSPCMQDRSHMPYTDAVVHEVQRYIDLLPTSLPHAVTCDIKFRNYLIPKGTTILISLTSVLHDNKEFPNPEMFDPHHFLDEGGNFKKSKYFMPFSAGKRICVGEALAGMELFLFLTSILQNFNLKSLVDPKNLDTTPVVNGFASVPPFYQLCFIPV
rCYP 2C19, sequence (P33261 whole entry): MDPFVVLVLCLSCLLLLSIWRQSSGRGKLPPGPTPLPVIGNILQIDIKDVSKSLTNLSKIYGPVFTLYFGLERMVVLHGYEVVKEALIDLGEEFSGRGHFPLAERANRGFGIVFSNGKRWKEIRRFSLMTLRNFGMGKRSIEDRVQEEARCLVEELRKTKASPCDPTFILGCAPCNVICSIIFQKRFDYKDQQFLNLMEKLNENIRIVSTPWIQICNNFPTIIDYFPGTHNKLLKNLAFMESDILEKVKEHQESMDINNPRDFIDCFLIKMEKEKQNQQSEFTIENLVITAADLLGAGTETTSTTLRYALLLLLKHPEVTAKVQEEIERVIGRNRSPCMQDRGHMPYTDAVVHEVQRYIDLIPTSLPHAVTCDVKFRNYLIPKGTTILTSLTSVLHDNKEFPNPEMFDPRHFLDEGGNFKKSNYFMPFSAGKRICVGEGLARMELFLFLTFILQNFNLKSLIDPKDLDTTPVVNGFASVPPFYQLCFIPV
rCYP 3A4, sequence (P08684 whole entry): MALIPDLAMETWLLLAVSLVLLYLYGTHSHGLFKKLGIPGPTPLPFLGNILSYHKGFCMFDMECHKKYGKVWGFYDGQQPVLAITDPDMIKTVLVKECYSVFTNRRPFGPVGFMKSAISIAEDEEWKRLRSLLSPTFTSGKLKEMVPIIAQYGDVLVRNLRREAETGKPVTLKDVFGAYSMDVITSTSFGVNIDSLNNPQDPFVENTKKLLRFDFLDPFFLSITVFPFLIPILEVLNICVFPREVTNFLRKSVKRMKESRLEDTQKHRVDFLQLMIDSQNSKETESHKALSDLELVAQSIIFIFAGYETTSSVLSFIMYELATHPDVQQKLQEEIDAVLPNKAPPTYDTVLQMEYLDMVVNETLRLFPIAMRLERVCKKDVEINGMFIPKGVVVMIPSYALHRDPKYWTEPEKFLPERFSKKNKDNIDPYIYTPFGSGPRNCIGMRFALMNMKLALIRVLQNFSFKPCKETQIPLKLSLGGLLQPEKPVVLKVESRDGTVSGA
rCYP 2D6, sequence (P10635 whole entry): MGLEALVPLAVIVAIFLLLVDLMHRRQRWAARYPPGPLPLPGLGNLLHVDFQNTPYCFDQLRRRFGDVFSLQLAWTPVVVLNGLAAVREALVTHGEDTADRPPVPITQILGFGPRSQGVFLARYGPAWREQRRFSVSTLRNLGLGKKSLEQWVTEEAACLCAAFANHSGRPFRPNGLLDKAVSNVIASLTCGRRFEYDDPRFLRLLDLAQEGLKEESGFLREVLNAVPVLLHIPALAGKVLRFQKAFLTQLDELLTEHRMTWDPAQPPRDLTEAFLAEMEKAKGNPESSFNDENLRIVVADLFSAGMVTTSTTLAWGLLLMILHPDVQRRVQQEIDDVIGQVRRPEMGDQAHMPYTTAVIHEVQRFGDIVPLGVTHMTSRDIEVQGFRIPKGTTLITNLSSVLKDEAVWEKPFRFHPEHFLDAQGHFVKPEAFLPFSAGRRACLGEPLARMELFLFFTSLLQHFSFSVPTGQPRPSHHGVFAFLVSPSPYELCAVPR

| Structure (SMILES) | rCYP % Inhibition 2C9 (rCYP 2C9) | rCYP % Inhibition 2D6 (rCYP 2D6) | Metabolic Stability Percent Remaining (Metabolic stability) | rCYP % Inhibition 3A4 (rCYP 3A4) | rCYP % Inhibition 2C19 (rCYP 2C19) | rCYP % Inhibition 1A2 (rCYP 1A2) | further results |
| --- | --- | --- | --- | --- | --- | --- | --- |
| CC(O)CCCCN1C(=O)C(C)N(CCCCC(C)O)C(=O)C1C (mixture of isomers) [CPW6] | 3% | 16% | 77% | 14% | 14% | 13% | – |
| C[C@@H]([O-])CCCCN1C(=O)COc2ccccc21.[Na+] [CPW7] | 5% | 8% | – | 12% | 12% | 12% | – |
| CC(=O)O[C@H](C)CCCCn1[nH]c(=O)n(-c2ccccc2)c1=O [CPW8] | 5% | 10% | 45% | 12% | 24% | 7% | – |
| C[C@@H](O)CCCCn1[nH]c(=O)n(-c2ccccc2)c1=O [CPW9] | −12% | 2% | 106% | −4% | 1% | 5% | – |
| C[C@@H](O)CCCCOc1n[nH]c(=O)c2ccccc12 [CPW12] | 30% | 12% | 75% | 4% | 30% | 18% | insulin secretion (human islets [1]): positive effects; maintaining cell viability (human islets [2]): beneficial effect; β-cell protective activity compared with LSF (INS-1 cells [3]; concentration of 10^−2 μM): comparative activity with LSF; protective effects on β-cells (INS-1 cells [3]; cytokine-induced cell death): effective at low concentrations; insulin release (mouse-origin β-TC6 cells [4]): positive effects; Caco-2 permeability test results (Caco-2): could be orally absorbed from the GI track; maintaining mitochondrial function (human islets [5]): beneficial effect; cytochrome p450 inhibition (cytochrome p450): low (less than 20 inhibitory activity); stability (Metabolic stability; in words): acceptable; β-cell protection (mouse-origin β-TC6 cells [6]): positive effects; solubility (Solubility): acceptable |
| C[C@@H](O)CCCCOc1nn(CCCC[C@@H](C)O)c(=O)c2ccccc12 [CPW13] | 92% | −28% | 38% | −159% | 89% | 25% | – |
| C[C@@H](O)CCCCn1c(=O)c2c(ncn2C)n(C)c1=O [LSF, 1-(5-R-hydroxyhexyl)-3,7-dimethylxanthine] | – | – | – | – | – | – | concentration of maximum protective effect (INS-1 cells [3]; IL-1β + IFNγ + TNFα, 18 hours): 10^−2 μM; insulin release (INS-1 cells [7]): Insulin release was observed; protection of β-cells from inflammatory cytokine-mediated injuries (β-cells): able to protect β-cells; spontaneous Type 1 diabetes development [8]: significantly reduce; oral bioavailability [9]: not orally bioavailable |

Second part, led by results:

| rCYP % Inhibition 2C9 (rCYP 2C9) | rCYP % Inhibition 2D6 (rCYP 2D6) | Metabolic Stability Percent Remaining (Metabolic stability) | rCYP % Inhibition 3A4 (rCYP 3A4) | rCYP % Inhibition 2C19 (rCYP 2C19) | rCYP % Inhibition 1A2 (rCYP 1A2) | Structure (SMILES) | further results |
| --- | --- | --- | --- | --- | --- | --- | --- |
| 86% | 80% | 0% | 57% | 99% | 58% | CC(=O)O[C@H](C)CCCCn1ccc2cc(Br)ccc21 [CPW1] | – |
| 38% | 50% | 0% | 32% | 94% | 56% | C[C@@H](O)CCCCn1ccc2cc(Br)ccc21 [CPW4] | – |
| 86% | 73% | 19% | 50% | 98% | 95% | C[C@@H](O)CCCCN1c2ccccc2Oc2ccccc21 [CPW20] | – |
